Experimental data reported in patent US10758499B2, “Dermatitis treatment” (Avexxin AS, priority 2012, dated 2020).

What was measured:
[1] = tested on: oxazolone-induced delayed-type-hypersensitivity (DTH) responses; test: oxazolone-induced ear edema model (delayed-type-hypersensitivity) in mice, therapeutic topical treatment; format: in vivo, mice (female BALB/c); conditions: for Relative oxazolone specific ear swelling, average: topical 1 h and 7 h after challenge, 24 h after challenge, placebo 95%; for Absolute oxazolone specific ear swelling, average: topical on right ear 1 h and 7 h after challenge, measured 24 h after challenge, placebo 217 μm
Method: DTH can be induced by skin sensitization with oxazolone, followed by a topical ear challenge with oxazolone 7 days later. This challenge results in development of an inflammatory response in the ear within 24 hours, which is dependent on antigen-specific T cells. The DTH reaction is associated with the recruitment of a variety of inflammatory cells and development of edema. The latter can be measured by quantifying changes in ear thickness before and after ear challenge. The oxazolone-induced ear edema model in mice is therefore a model of delayed contact hypersensitivity that permits the quantitative evaluation of the topical and systemic anti-inflammatory activity of a compound following topical administration. Female mice (6-8 wks—BALB/c) were acclimatization for 7 days in 12 hours light/12 hours dark cycle, at Temperature: 20-24° C., humidity: 55%±10%, on a standard laboratory mouse diet. Day 0: Mice were anesthetized by inhalation of 3-4% isoflurane in a 1:1 mixture of oxygen and medical air. The abdominal skin was shaved to enable topical application of 100 μl 1.5% (w/v) oxazolone in 100% acetone. Day 7: All ears were wiped with ethanol to optimize exposure to oxazolone. Subsequently, the right ear of the sensitized animals were challenged by topical administration of 20 μl (10 μl on each side of the ear) 2.5% (w/v) oxazolone in 100% ethanol. The left ears were treated with 20 μl 100% ethanol. Day 8: After 24 hours, mice were sacrificed and the right ears were collected to enable analysis by (immuno)-histochemistry and/or histology. The vehicle used to carry AVX001 was paraffin. The placebo was paraffin. Approx 20 μl (10 μl on each side of the right ear) of composition is applied to effect the test. 4 groups (8 mice per group) were studied. Group 1: Placebo, 1 hour and 7 hours after challenge Group 2: Compound 0.2 wt %, 1 hour and 7 hours after challenge Group 3: Compound 0.05 wt %, 1 hour and 7 hours after challenge Group 4: Compound 0.01 wt %, 1 hour and 7 hours after challenge Day 7: Ear thickness of both ears was measured directly before the ear-challenge (5 measurements per ear) using a Mitutoyo micrometer (accuracy 0.01 mm). Day 8: 24 Hours after challenge, thickness of left and right ears was measured again. The increase in ear thickness of each ear was calculated by subtracting the mean ear thickness measured on day 7 (before challenge) from the thickness on day 8 (24 hrs after challenge). To determine the oxazolone specific increase in ear thickness, the calculated increase in ear thickness of the left ear was subtracted from that of the right ear. Both absolute (Delta μm) and relative (%) increases in ear thickness were calculated. Increase in ear thickness (Delta μm): Thickness day 8 (μm)−Thickness day 7 (μm) Oxazolone specific increase (Delta μm): Increase right ear (Delta μm)−Increase left ear (Delta μm) Relative increase in ear thickness (%): (Increase in ear thickness (Delta μm)/Thickness day 7 (μm))*100% Relative oxazolone specific increase in ear thickness (%): Relative increase right ear (%)−Relative increase left ear (%) Data of groups was examined by one-way analysis of variance, and individual groups were then compared with Dunnets test or Students t-test. Data was given as mean±SD, if not stated otherwise. Values of p<0.05 were considered significant.

[2] = target: T1, group IVa PLA2 enzyme (Mus musculus, UniProt P47713); test: PGE2 EIA analysis of ear tissue homogenates after treatment; format: in vivo, mice; conditions: treated versus paraffin placebo ear tissue, right ear biopsies
T1 construct: the right ear biopsies were homogenized in 400 μl lysisbuffer; from tissue; host or cells: mouse ear tissue (in vivo treatment, ear biopsies homogenised)
T1 sequence (P47713 1-748): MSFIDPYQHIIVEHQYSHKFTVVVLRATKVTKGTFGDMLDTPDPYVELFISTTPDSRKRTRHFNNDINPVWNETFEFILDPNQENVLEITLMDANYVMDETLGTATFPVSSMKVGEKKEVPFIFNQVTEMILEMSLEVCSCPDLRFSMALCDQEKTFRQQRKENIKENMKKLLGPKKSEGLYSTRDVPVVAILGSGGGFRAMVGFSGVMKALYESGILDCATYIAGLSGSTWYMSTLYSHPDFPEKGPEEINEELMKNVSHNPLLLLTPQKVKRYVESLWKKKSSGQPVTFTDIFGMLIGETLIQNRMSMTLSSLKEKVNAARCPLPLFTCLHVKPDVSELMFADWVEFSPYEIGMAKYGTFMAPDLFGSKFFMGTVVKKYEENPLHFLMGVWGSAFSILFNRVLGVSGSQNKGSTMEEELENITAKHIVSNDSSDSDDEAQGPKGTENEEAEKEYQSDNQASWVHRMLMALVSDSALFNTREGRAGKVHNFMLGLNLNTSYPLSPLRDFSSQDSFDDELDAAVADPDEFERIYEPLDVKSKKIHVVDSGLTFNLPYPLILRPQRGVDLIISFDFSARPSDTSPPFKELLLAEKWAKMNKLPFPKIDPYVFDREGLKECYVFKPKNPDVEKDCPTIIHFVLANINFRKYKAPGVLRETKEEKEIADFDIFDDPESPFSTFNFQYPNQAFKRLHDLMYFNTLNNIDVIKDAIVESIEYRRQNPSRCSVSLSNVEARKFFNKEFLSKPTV
Method: Using a PreCellys homogenisator, the right ear biopsies were homogenized in 400 μl lysisbuffer containing 10 μM indomethasin. The lysate was stored at −80° C. until further processing. PGE2 EIA analysis ear homogenates was performed according to kit protocol (Cayman Chemicals). Plasma samples were diluted 1:60 and 1:180 in EIA buffer. The samples were hybridized over-night (18 hrs, 4° C.). The EIA plates were read using a Multiscan plate reader (Ascent Labsystems, OD550 nm). Ascent software for Multiscan, Version 2.4.1 was used to obtain the data. PGE2 results are shown as mean±SD relative to the paraffin-treated placebo mice (n=5 mice).
Data of groups was examined by one-way analysis of variance, and individual groups were then compared with Dunnets test or Students t-test. Data was given as mean±SD, if not stated otherwise. Values of p<0.05 were considered significant.

CC/C=C\C/C=C\C/C=C\C/C=C\CC/C=C/CSCC(=O)C(F)(F)F [AVX001]
Relative oxazolone specific ear swelling, average ([1]; AVX001 0.01% in paraffin): 58% | Absolute oxazolone specific ear swelling, average ([1]; AVX001 0.01% in paraffin): 134 μm | Relative oxazolone specific ear swelling, average ([1]; AVX001 0.05% in paraffin): 43% | Absolute oxazolone specific ear swelling, average ([1]; AVX001 0.05% in paraffin): 103 μm | Relative oxazolone specific ear swelling, average ([1]; AVX001 0.2% in paraffin): 42% | Absolute oxazolone specific ear swelling, average ([1]; AVX001 0.2% in paraffin): 94 μm | reduction of the oxazolone specific ear swelling (result in words) ([1]; all concentrations (0.01%, 0.05%, 0.2%), topical, versus placebo): statistically significant for all concentrations | reduction in ear tissue PGE2 concentration [2]: 20%
